{"source": "patent US20230024537A1", "about": "“Oral Delivery Compositions for Obesity Management” (BOARD OF REGENTS, THE UNIVERSITY OF TEXAS SYSTEM, priority 2021, published 2023)", "key": {"[1]": {"assay": "Beta glucan gel mediated oral delivery of nutraceuticals (absorption, pharmacokinetics)", "text": "Beta-glucan compositions can be used to delivery other nutrients or therapeutic molecule via oral delivery."}, "[2]": {"test_system": "high fat diet induced rat model", "assay": "Oral delivery of anti-leptin antibody or leptin protein in high fat diet induced rat model", "assay_type": "in vivo", "protocol": "The inventors have developed an oral antibody or protein delivery platform and investigated feasibility using an anti-leptin antibody. […] The oral delivery vehicle facilitated enhancement of intestinal penetration of the antibody as well as protect the antibody from being damaged within the stomach in presence of acidic gastric juice. […] An oral dose of 5-10 μg leptin protein resulted 10-20% body weight reduction compared to the untreated high fat diet rat. […] Treated groups show less cholesterol contents in their blood which is within the normal range in opposed to the untreated animal that are observed with high cholesterol content."}, "[3]": {"test_system": "high fat diet rat", "assay": "Rat animal model, high fat diet with CAGE-Leptin or BG-leptin treatment (body weight, food consumption)", "assay_type": "in vivo", "protocol": "Materials and Methods. Rat Animal Model. Rats are fed normal diet for 5 weeks, both male and female, body weight and food consumption is measured. Animals are fed a high fat diet for 5 weeks, body weight and food consumption is measured. Animals are fed high fat diet with CAGE-Leptin treatment for 5 weeks, body weight and food consumption is measured. Animals are fed high fat diet with BG-leptin treatment for 5 weeks, body weight and food consumption is measured.\nFour groups of male were getting high fat diet for 2 weeks and then we start administer with cage, cage-leptin ab and leptin ab treatments (FIG. 3)."}}}
{"molecule": "O=C(O)CCCCC1CCSS1", "note": "(racemic) [DL-thioctic acid]", "values": [{"measurement": "enhancement of pharmacokinetics", "setting": "[1]; Beta glucan mediated oral delivery, compared with free oral delivery, thioctic acid tested in rat", "result": "10-20 folds"}]}
{"molecule": "CC/C=C\\C/C=C\\C/C=C\\C/C=C\\C/C=C\\C/C=C\\CCC(=O)O", "note": "[Docosahexaenoic acid, docosahexaenoic acid]", "values": [{"measurement": "enhancement of pharmacokinetics", "setting": "[1]; rat, in vivo, po", "result": 10, "unit": "folds"}]}
{"molecule": "O=S(=O)([O-])[O-].[Fe+2]", "note": "[iron sulfate]", "values": [{"measurement": "constipation problem associated with oral delivery", "setting": "[1]; enhanced absorption by beta glucan", "result": "mitigation of constipation problem"}, {"measurement": "absorption enhanced by Beta glucan", "setting": "[1]; with Beta glucan, given orally", "result": 60, "unit": "%"}]}
{"molecule": "leptin protein: Leptin protein (GenBank NP-000221), protein hormone of approx. 16 kDa formed by 146 amino acids", "values": [{"measurement": "body weight reduction compared to untreated high fat diet rat", "setting": "[2]; oral dose of 5-10 μg", "result": "10-20%"}, {"measurement": "production of anti leptin antibody", "setting": "[2]; oral leptin protein", "result": "results in production anti leptin antibody"}, {"measurement": "fat content in body", "setting": "[2]; treated high fat diet rat", "result": "significantly less fat content"}, {"measurement": "food consumption, male rat", "setting": "[3]; male rats on high fat diet, versus high fat and regular diet control groups, FIG. 4 and FIG. 5", "result": "lower amount of food"}, {"measurement": "body weight gain, male rat", "setting": "[3]; male rats, FIG. 2", "result": "lower than regular and high fat diet male control group"}]}
{"molecule": "vitamin B12", "values": [{"measurement": "enhancement of pharmacokinetics", "setting": "[1]; rat, in vivo, po", "result": "15-20 folds"}]}
